From ChEMBL document CHEMBL1131026, “D-amino acid containing, high-affinity inhibitors of recombinant human calpain I” (J Med Chem, 1998)
Square brackets hold non-standard residues; d marks the D form. Peptide text beside a SMILES is read from it. * marks the point of attachment. d(hPhe) = N[C@H](CCc1ccccc1)C(=O)O; d2Thi = N[C@H](Cc1cccs1)C(=O)O; dPhg = N[C@@H](C(=O)O)c1ccccc1; Abu = CC[C@H](N)C(=O)O; Bn = c1ccc(C*)cc1; Ms = CS(=O)(=O)*

Experiments:
[1] = target: T1, Calpain-1 catalytic subunit (Homo sapiens, UniProt P07384); test: Inhibitory activity against recombinant human Calpain-I receptor
T1 sequence (P07384 whole entry): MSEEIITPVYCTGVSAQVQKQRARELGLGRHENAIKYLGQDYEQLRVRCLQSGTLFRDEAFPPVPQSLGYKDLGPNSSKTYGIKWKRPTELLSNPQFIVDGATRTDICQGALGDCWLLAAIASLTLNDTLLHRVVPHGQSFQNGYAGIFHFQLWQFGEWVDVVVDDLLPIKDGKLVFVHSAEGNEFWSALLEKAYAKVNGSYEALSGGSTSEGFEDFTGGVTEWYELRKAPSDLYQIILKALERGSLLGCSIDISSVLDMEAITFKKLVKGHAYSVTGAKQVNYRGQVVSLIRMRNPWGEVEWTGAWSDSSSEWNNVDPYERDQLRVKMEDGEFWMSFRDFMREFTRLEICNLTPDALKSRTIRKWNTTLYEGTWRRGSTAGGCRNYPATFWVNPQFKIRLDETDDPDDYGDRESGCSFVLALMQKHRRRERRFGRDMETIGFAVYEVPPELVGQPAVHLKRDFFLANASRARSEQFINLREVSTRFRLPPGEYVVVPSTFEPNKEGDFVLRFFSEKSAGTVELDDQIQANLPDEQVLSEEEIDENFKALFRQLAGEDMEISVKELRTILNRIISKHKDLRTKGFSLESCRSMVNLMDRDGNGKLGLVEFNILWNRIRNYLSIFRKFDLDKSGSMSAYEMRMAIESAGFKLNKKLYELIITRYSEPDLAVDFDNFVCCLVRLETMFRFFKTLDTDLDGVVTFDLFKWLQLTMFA

[2] = target: T1, Calpain-1 catalytic subunit; test: Inhibition of intracellular Calpain-I receptor using intact cell assay system; type: cell-based
[3] = target: Prothrombin (Homo sapiens) (UniProt P00734); test: Inhibitory activity against human plasma thrombin at 10 uM; type: cell-free
Cathepsin B = Cathepsin B (Homo sapiens, UniProt P07858); test: Inhibitory activity against cathepsin B receptor in human liver
[4] = target: Chymotrypsinogen A (Bos taurus) (UniProt P00766); test: Inhibitory activity against Bovine pancreas alpha-chymotrypsin at 10 uM

Compound | Ki [1] [nM] | IC50 [2] [nM] | inhibition [3] [%] | Ki (Cathepsin B) [nM] | inhibition [4] [%]
CC(C)C[C@@H](C=O)NC(=O)[C@@H](COCc1ccccc1)NS(C)(=O)=O (Ms-[dS](Bn)-Leu-aldehyde) | 66 | – | – | – | –
CS(=O)(=O)NC(COCc1ccccc1)C(=O)N[C@H](C=O)Cc1ccccc1 (single isomer, unassigned) | 41 | – | – | – | –
CS(=O)(=O)N[C@H](CCc1ccccc1)C(=O)N[C@H](C=O)Cc1ccccc1 (Ms-[d(hPhe)]-Phe-aldehyde) | 28 | – | – | – | –
CCNC(=O)C(=O)[C@H](Cc1ccccc1)NC(=O)[C@@H](COCc1ccccc1)NS(C)(=O)=O | 130 | – | – | – | –
CS(=O)(=O)N[C@H](Cc1ccccc1)C(=O)N[C@H](C=O)Cc1ccccc1 (Ms-[dF]-Phe-aldehyde) | 11 | 600 | 0 | 120 | 12
CN([C@H](COCc1ccccc1)C(=O)N[C@H](C=O)Cc1ccccc1)S(C)(=O)=O | 370 | – | – | – | –
CC[C@@H](C=O)NC(=O)[C@@H](COCc1ccccc1)NS(C)(=O)=O (Ms-[dS](Bn)-[Abu]-aldehyde) | 36 | – | – | – | –
O=C[C@H](Cc1ccccc1)NC(=O)[C@@H](COCc1ccccc1)NS(=O)(=O)c1cccs1 | 9 | – | – | – | –
CS(=O)(=O)N[C@H](CSCc1ccccc1)C(=O)N[C@H](C=O)Cc1ccccc1 (Ms-[dC](Bn)-Phe-aldehyde) | 6 | 800 | 7 | 41 | 16
CS(=O)(=O)N[C@H](COCc1ccccc1)C(=O)N[C@H](C=O)Cc1ccccc1 | 8 | 700 | 0 | 32 | 23
CCS(=O)(=O)N[C@H](COCc1ccccc1)C(=O)N[C@H](C=O)Cc1ccccc1 | 9 | 400 | 9 | 45 | 15
CC(OCc1ccccc1)[C@@H](NS(C)(=O)=O)C(=O)N[C@H](C=O)Cc1ccccc1 (some centres not stated) | 9 | 500 | 0 | 44 | 3
CS(=O)(=O)N[C@H](Cc1c[nH]c2ccccc12)C(=O)N[C@H](C=O)Cc1ccccc1 (Ms-[dW]-Phe-aldehyde) | 10 | – | – | – | –
O=C[C@H](Cc1ccccc1)NC(=O)[C@@H](COCc1ccccc1)NS(=O)(=O)c1ccccc1 | 22 | – | – | – | –
CS(=O)(=O)N[C@H](COCc1ccccc1)C(=O)N[C@H](C=O)Cc1ccc(OCc2ccccc2)cc1 (Ms-[dS](Bn)-Tyr(Bn)-aldehyde) | 4 | 700 | 0 | 45 | 0
CS(=O)(=O)N[C@@H](C(=O)N[C@H](C=O)Cc1ccccc1)c1ccccc1 (Ms-[dPhg]-Phe-aldehyde) | 9 | – | – | – | –
CS(=O)(=O)N[C@H](CS(=O)(=O)Cc1ccccc1)C(=O)N[C@H](C=O)Cc1ccccc1 | 11 | – | – | – | –
CC(C)C[C@@H](NS(C)(=O)=O)C(=O)N[C@H](C=O)Cc1ccccc1 (Ms-[dL]-Phe-aldehyde) | 29 | – | – | – | –
CS(=O)(=O)N[C@H](COCc1ccccc1)C(=O)N[C@H](C=O)CCCCNS(=O)(=O)c1ccccc1 | 2 | 400 | 0 | 4 | 13
CS(=O)(=O)N[C@H](Cc1cccs1)C(=O)N[C@H](C=O)Cc1ccccc1 (Ms-[d2Thi]-Phe-aldehyde) | 11 | 300 | 0 | 23 | 0
